Read-outs that look alike come from different tables or passages of the source.
Legend:
KM mice = test: animal or person; format: in vivo; settings: for 2ED50 duration / 2ED50 recovery time / Quality of recovery: KM mice; for 2ED50 duration / 2ED50 recovery time: single tail vein injection at 2×ED50; for 2ED50 duration: time from disappearance to recovery of righting reflex; for 2ED50 recovery time: time from recovery of righting reflex to free crawling; for Quality of recovery: tail vein injection; for ED50: KM mice (male, 18-22 g), injection via the tail vein, disappearance of righting reflex; for duration and recovery time compared with remimazolam / effective dose compared with remimazolam: mice, tail vein, in words
SD rats = test: animal or person; format: in vivo; settings: for ED50: SD rats (male, 220-300 g), injection via the tail vein, disappearance of righting reflex; for 2ED50 duration / 2ED50 recovery time / Quality of recovery: SD rats; for 2ED50 duration / 2ED50 recovery time: single tail vein injection at 2×ED50; for 2ED50 duration: time from disappearance to recovery of righting reflex; for 2ED50 recovery time: time from recovery of righting reflex to free crawling; for Quality of recovery: tail vein injection; for duration and recovery time compared with remimazolam / effective dose compared with remimazolam: rats, tail vein, in words
[1] = Rattus norvegicus, read-out: ED50

Compound	2ED50 duration (KM mice) [min]	2ED50 recovery time (KM mice) [min]	Quality of recovery (KM mice)	ED50 (KM mice; Mus musculus, read-out: ED50) [mg/kg]	ED50 (SD rats; [1]) [mg/kg]	2ED50 duration (SD rats) [min]	2ED50 recovery time (SD rats) [min]	Quality of recovery (SD rats)	duration and recovery time compared with remimazolam (KM mice)	effective dose compared with remimazolam (KM mice)	duration and recovery time compared with remimazolam (SD rats)	effective dose compared with remimazolam (SD rats)	ED50 (KM mice) [mg/kg]	ED50 (SD rats) [mg/kg]
COC(=O)C1(OC(=O)CC[C@@H]2N=C(c3ccccn3)c3cc(Cl)c(C(F)(F)F)cc3-n3c(C)cnc32)CC1 [Example 25]	5.32	2.19	++ (“++” means 1-3 min)	34	4.2	3.53	2.21	++ (“++” means 1-3 min)	–	–	–	–	–	–
CCOC(=O)C1(OC(=O)CC[C@@H]2N=C(c3ccccn3)c3cc(F)c(C)cc3-n3c(C)cnc32)CC1 [Example 26]	4.38	2.08	+++ (“+++” means 3-5 min)	23.7	3.7	3.48	2.04	++ (“++” means 1-3 min)	–	–	–	–	–	–
COC(=O)COC(=O)CC[C@@H]1N=C(c2ccccn2)c2cc(F)c(OC)cc2-n2c(C)cnc21 [Example 27]	1.46	1.20	–	15.3	6.3	1.16	1.05	+ (“+” means <1 min)	significantly shorter	significantly lower	significantly shorter	significantly lower	–	–
CCOC(=O)COC(=O)CC[C@@H]1N=C(c2ccccn2)c2cc(Cl)c(OC(F)(F)F)cc2-n2c(C)cnc21 [Example 28]	0.52	0.58	–	9.5	4.5	0.58	0.33	+ (“+” means <1 min)	significantly shorter	significantly lower	significantly shorter	significantly lower	–	–
COC(=O)C(C)OC(=O)CC[C@@H]1N=C(c2ccccn2)c2c(cc(Cl)c(Cl)c2Cl)-n2c(C)cnc21 (stereo partly drawn) [Example 29]	4.59	2.48	+++ (“+++” means 3-5 min)	30.8	5.8	3.59	2.44	+++ (“+++” means 3-5 min)	–	–	–	–	–	–
COC(=O)C(C)(C)OC(=O)CC[C@@H]1N=C(c2ccccn2)c2cc(Cl)c(Cl)c(Cl)c2-n2c(C)cnc21 [Example 30]	4.04	1.59	++ (“++” means 1-3 min)	–	–	3.01	2.51	++ (“++” means 1-3 min)	–	–	–	–	30.2	6.2
Cc1cnc2n1-c1c(Cl)c(Cl)c(Cl)c(Cl)c1C(c1ccccn1)=N[C@H]2CCC(=O)OCOC(=O)OC(C(C)C)C(C)C [Example 31]	2.13	1.04	++ (“++” means 1-3 min)	17.3	2.3	1.23	1.14	+ (“+” means <1 min)	significantly shorter	significantly lower	significantly shorter	significantly lower	–	–
Cc1cnc2n1-c1cc(C(F)(F)F)c(Cl)cc1C(c1cccnc1)=N[C@H]2CCC(=O)OCOC(=O)OC(C)C [Example 32]	4.34	2.01	++++ (“++++” means 5-10 min)	31.1	3.1	3.34	2.41	+++ (“+++” means 3-5 min)	–	–	–	–	–	–
Cc1cnc2n1-c1cc(Br)c(Cl)cc1C(c1ccncc1)=N[C@H]2CCC(=O)OCOC(=O)OC(C)(C)C [Example 33]	3.21	1.48	++ (“++” means 1-3 min)	21.2	6.2	3.51	2.38	+++ (“+++” means 3-5 min)	–	–	–	–	–	–
COC(=O)OCOC(=O)CC[C@@H]1N=C(c2ccccn2)c2cc(Br)ccc2-n2c(C)cnc21 [Example 34]	1.31	1.23	–	14.4	3.4	1.21	1.01	+ (“+” means <1 min)	significantly shorter	significantly lower	significantly shorter	significantly lower	–	–
CCOC(=O)OCOC(=O)CC[C@@H]1N=C(c2ccccn2)c2cc(Br)ccc2-n2c(C)cnc21 [Example 35]	5.25	2.02	+++ (“+++” means 3-5 min)	25.2	5.2	3.20	2.52	++ (“++” means 1-3 min)	–	–	–	–	–	–
CCOC(=O)OCOC(=O)CC[C@@H]1N=C(c2ccccn2)c2ccc(Cl)cc2-n2c(C)cnc21 [Example 36]	4.34	1.49	+++ (“+++” means 3-5 min)	27.8	2.8	3.14	2.39	+++ (“+++” means 3-5 min)	–	–	–	–	–	–
CCOC(=O)COC(=O)CC[C@@H]1N=C(c2ccccn2)c2cccc(Cl)c2-n2c(C)cnc21 [Example 37]	4.42	1.58	++ (“++” means 1-3 min)	25.7	5.7	3.02	2.51	++ (“++” means 1-3 min)	–	–	–	–	–	–
CCOC(=O)COC(=O)CC[C@@H]1N=C(c2ccccn2)c2cc(Cl)ccc2-n2c(C)cnc21 [Example 38]	3.25	1.25	++ (“++” means 1-3 min)	–	–	4.05	2.55	++++ (“++++” means 5-10 min)	–	–	–	–	25	6.5
COC(=O)C1(OC(=O)CC[C@@H]2N=C(c3ccccn3)c3c(Cl)cc(C(F)(F)F)cc3-n3c(C)cnc32)CC1 [Example 39]	5.09	2.28	+++ (“+++” means 3-5 min)	26.7	6.7	4.03	2.48	++ (“++” means 1-3 min)	–	–	–	–	–	–
COC(=O)C1(OC(=O)CC[C@@H]2N=C(c3ccccn3)c3cc(Cl)c(C(F)(F)F)cc3-n3c(C)cnc32)CC1 [Example 40]	4.26	1.55	++ (“++” means 1-3 min)	–	–	4.06	2.01	++ (“++” means 1-3 min)	–	–	–	–	24.8	6.8
COC(=O)C1(OC(=O)CC[C@@H]2N=C(c3ccccn3)c3ccc(C(F)(F)F)c(Cl)c3-n3c(C)cnc32)CC1 [Example 41]	3.53	1.57	++ (“++” means 1-3 min)	28.9	5.9	3.43	2.47	++ (“++” means 1-3 min)	–	–	–	–	–	–
CC(=O)O.COC(=O)C1(OC(=O)CC[C@@H]2N=C(c3ccccn3)c3cc(Cl)c(OC(F)(F)F)cc3-n3c(C)cnc32)CC1 [Example 42]	0.58	0.53	+ (“+” means <1 mm)	–	–	0.51	0.31	+ (“+” means <1 min)	significantly shorter	significantly lower	significantly shorter	significantly lower	8.7	4.7
COC(=O)C1(OC(=O)CC[C@@H]2N=C(c3ccccn3)c3c(Cl)cc(OC(F)(F)F)cc3-n3c(C)cnc32)CC1.O=C(O)O [Example 43]	6.01	2.13	++++ (“++++” means 5-10 min)	–	–	3.01	2.41	++ (“++” means 1-3 min)	–	–	–	–	29.5	6.5
COC(=O)C1(OC(=O)CC[C@@H]2N=C(c3ccccn3)c3cc(Cl)c(Br)cc3-n3c(C)cnc32)CC1 [Example 45]	2.20	1.53	++++ (“++++” means 5-10 min)	30	7.1	3.01	2.00	++ (“++” means 1-3 min)	–	–	–	–	–	–
